{"source": "patent US20230053540A1", "about": "“TREATMENT OF LIVER INJURY” (Massachusetts Institute of Technology, priority 2019, published 2023)", "tested_on": "hepatocytes", "test": "Seq-Well scRNA-Seq of hepatocytes after APAP overdose (signature scores, DEG vs untreated)", "type": "in vivo, mouse", "details": "cluster A48 (APAP, 48 h)", "data": [{"compound": "CC(=O)Nc1ccc(O)cc1", "note": "[APAP, acetaminophen]", "values": [{"measurement": "avg_logFC Cyp4a10", "value": 1.157}, {"measurement": "avg_logFC Cyp4a14", "value": 1.488}, {"measurement": "avg_logFC Dbp", "value": 0.2929}, {"measurement": "avg_logFC Dcxr", "value": 0.3518}, {"measurement": "avg_logFC Ddb1", "value": 0.3373}, {"measurement": "avg_logFC Decr1", "value": 0.5941}, {"measurement": "avg_logFC Decr2", "value": 0.4308}, {"measurement": "avg_logFC Dhrs4", "value": 0.342}, {"measurement": "avg_logFC Ech1", "value": 0.5251}, {"measurement": "avg_logFC Echs1", "value": 0.4926}, {"measurement": "avg_logFC Eef1d", "value": 0.2745}, {"measurement": "avg_logFC Ephx2", "value": 0.4864}, {"measurement": "avg_logFC Esrra", "value": 0.2518}, {"measurement": "avg_logFC Etfb", "value": 0.3542}, {"measurement": "avg_logFC Etnppl", "value": 0.6045}, {"measurement": "avg_logFC F2", "value": 0.3767}, {"measurement": "avg_logFC F10", "value": 0.3879}, {"measurement": "avg_logFC F12", "value": 0.385}, {"measurement": "avg_logFC Fah", "value": 0.3039}, {"measurement": "avg_logFC Fam195a", "value": 0.3544}, {"measurement": "avg_logFC Fcgrt", "value": 0.4314}, {"measurement": "avg_logFC Fth1", "value": 0.4342}, {"measurement": "avg_logFC G0s2", "value": 0.4232}, {"measurement": "avg_logFC Gabarap", "value": 0.4376}, {"measurement": "avg_logFC Galk1", "value": 0.2686}, {"measurement": "avg_logFC Gcdh", "value": 0.306}, {"measurement": "avg_logFC Gchfr", "value": 0.3676}, {"measurement": "avg_logFC Ggnbp2", "value": 0.2821}, {"measurement": "avg_logFC Glrx5", "value": 0.3308}, {"measurement": "avg_logFC Gltscr2", "value": 0.3759}, {"measurement": "avg_logFC Gm6484", "value": 0.3759}, {"measurement": "avg_logFC Gsta2", "value": 0.2734}, {"measurement": "avg_logFC Gsto1", "value": 0.3392}, {"measurement": "avg_logFC Gstt2", "value": 0.3234}, {"measurement": "avg_logFC Gstt3", "value": 0.3834}, {"measurement": "avg_logFC Gys2", "value": 0.4182}, {"measurement": "avg_logFC Hdac11", "value": 0.3963}, {"measurement": "avg_logFC Herpud1", "value": 0.5965}, {"measurement": "avg_logFC Hmgcl", "value": 0.619}, {"measurement": "avg_logFC Hmgcs2", "value": 0.8196}, {"measurement": "avg_logFC Hrg", "value": 0.436}, {"measurement": "avg_logFC Hsd17b10", "value": 0.4452}, {"measurement": "avg_logFC Hsd17b13", "value": 0.6427}, {"measurement": "avg_logFC Ifnar2", "value": 0.2833}, {"measurement": "avg_logFC Khk", "value": 0.5338}, {"measurement": "avg_logFC Lamp1", "value": 0.3377}, {"measurement": "avg_logFC Lcat", "value": 0.4733}, {"measurement": "avg_logFC Lims2", "value": 0.3931}, {"measurement": "avg_logFC Lipa", "value": 0.3277}, {"measurement": "avg_logFC Mat1a", "value": 0.6585}, {"measurement": "avg_logFC Mfsd2a", "value": 0.5827}, {"measurement": "avg_logFC Mgll", "value": 0.3192}, {"measurement": "avg_logFC Mia3", "value": 0.3374}, {"measurement": "avg_logFC Mlycd", "value": 0.4637}, {"measurement": "avg_logFC Mrpl43", "value": 0.2692}, {"measurement": "avg_logFC Ndrg2", "value": 0.3498}, {"measurement": "avg_logFC Ndufb2", "value": 0.407}, {"measurement": "avg_logFC Ndufb10", "value": 0.3471}, {"measurement": "avg_logFC Ndufs7", "value": 0.2882}, {"measurement": "avg_logFC Ninj1", "value": 0.3542}, {"measurement": "avg_logFC Nr1i3", "value": 0.5739}, {"measurement": "avg_logFC Oaf", "value": 0.5619}, {"measurement": "avg_logFC Pabpc1", "value": 0.5116}, {"measurement": "avg_logFC Park7", "value": 0.403}, {"measurement": "avg_logFC Pbld1", "value": 0.3989}, {"measurement": "avg_logFC Pbld2", "value": 0.3619}, {"measurement": "avg_logFC Pigr", "value": 0.4224}, {"measurement": "avg_logFC Pitpnb", "value": 0.2726}, {"measurement": "avg_logFC Plin5", "value": 0.3264}, {"measurement": "avg_logFC Pnpla2", "value": 0.3457}, {"measurement": "avg_logFC Ppara", "value": 0.3442}, {"measurement": "avg_logFC Prodh2", "value": 0.5179}, {"measurement": "avg_logFC Rabac1", "value": 0.3343}, {"measurement": "avg_logFC Rbp4", "value": 0.5139}, {"measurement": "avg_logFC Rdh7", "value": 0.5575}, {"measurement": "avg_logFC Reep6", "value": 0.5902}, {"measurement": "avg_logFC Retsat", "value": 0.8734}, {"measurement": "avg_logFC Rgs16", "value": 0.3803}, {"measurement": "avg_logFC Rpl4", "value": 0.3744}, {"measurement": "avg_logFC Rpl38", "value": 0.3455}, {"measurement": "avg_logFC Scand1", "value": 0.2581}, {"measurement": "avg_logFC Sco2", "value": 0.317}, {"measurement": "avg_logFC Sdhc", "value": 0.4334}, {"measurement": "avg_logFC Sdhd", "value": 0.4849}, {"measurement": "avg_logFC Sec14l2", "value": 0.389}, {"measurement": "avg_logFC Serpina1d", "value": 0.3563}, {"measurement": "avg_logFC Serpinf1", "value": 0.3954}, {"measurement": "avg_logFC Serping1", "value": 0.4435}, {"measurement": "avg_logFC Sh3glb1", "value": 0.3259}, {"measurement": "avg_logFC Shmt1", "value": 0.3827}, {"measurement": "avg_logFC Slc10a1", "value": 0.4562}, {"measurement": "avg_logFC Slc25a10", "value": 0.4539}, {"measurement": "avg_logFC Slc25a20", "value": 0.4208}, {"measurement": "avg_logFC Slc25a47", "value": 0.5249}, {"measurement": "avg_logFC Slc27a2", "value": 0.3146}, {"measurement": "avg_logFC Slc27a5", "value": 0.41}, {"measurement": "avg_logFC Slc37a4", "value": 0.4211}, {"measurement": "avg_logFC Slc40a1", "value": 0.332}, {"measurement": "avg_logFC Slco1a4", "value": 0.5466}, {"measurement": "avg_logFC Smlr1", "value": 0.3065}, {"measurement": "avg_logFC Snord118", "value": 0.5286}]}]}
